Laboratory results taken from US5466815A, “Tetrazole derivatives of bile acids, and their use as lipid level lowering medicaments” (Hoechst Aktiengesellschaft, priority 1993, dated 1995).

Molecular target: T1, intestinal bile acid transportation system (Na^+ -dependent) in brush border membrane vesicles of the ileum (Oryctolagus cuniculus, UniProt Q28727)
T1 construct: Brush border membrane vesicles were prepared from the intestinal cells of the small intestine; from tissue; host or cells: brush border membrane vesicles from the terminal 7/10 of the small intestine (ileum) of male New Zealand rabbits
T1 sequence (Q28727 1-347): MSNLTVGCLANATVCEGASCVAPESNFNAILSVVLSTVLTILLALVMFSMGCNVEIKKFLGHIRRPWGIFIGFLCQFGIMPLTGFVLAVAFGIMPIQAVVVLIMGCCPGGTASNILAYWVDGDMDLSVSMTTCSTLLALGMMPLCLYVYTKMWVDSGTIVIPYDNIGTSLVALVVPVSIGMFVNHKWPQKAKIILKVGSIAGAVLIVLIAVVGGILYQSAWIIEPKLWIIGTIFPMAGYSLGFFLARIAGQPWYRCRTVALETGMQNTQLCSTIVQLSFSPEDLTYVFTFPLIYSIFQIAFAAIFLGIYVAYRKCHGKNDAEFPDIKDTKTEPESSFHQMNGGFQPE
Assay: Inhibition of [^3 H]-taurocholate uptake in brush border membrane vesicles of the ileum of rabbits
Format: biochemical, rabbit
Settings: 50 μM taurocholate, usually 1 minute; for IC50Na TCDC / IC50Na -substance: quotient of IC50Na of reference taurochenodeoxycholate (TCDC) and IC50Na of test substance, Na^+ -dependent transportation content (Na-T-B minus K-T-B); for IC50 -TCDC / IC50 -substance: quotient of IC50 of reference taurochenodeoxycholate (TCDC) and IC50 of test substance, [^3 H]-taurocholate uptake
Procedure: The compounds according to the invention were tested biologically by determination of the inhibition of [^3 H]-taurocholate uptake in brush border membrane vesicles of the ileum of rabbits. The inhibition test was carried out as follows:
1. Preparation of Brush Border Membrane Vesicles from the Ileum of Rabbits
Brush border membrane vesicles were prepared from the intestinal cells of the small intestine by the so-called Mg^2+ precipitation method. Male New Zealand rabbits (2 to 2.5 kg bodyweight) were sacrificed by intravenous injection of 0.5 ml of an aqueous solution of 2.5 mg Tetracain HCl, 100 T61^R and 25 mg of mebezonium iodide. The small intestine was rinsed with ice-cold physiological saline solution. The terminal […] of the small intestine (measured in the oral-rectal direction, i.e. the terminal ileum, which contains the active Na^+ -dependent bile acid transportation system) was used for preparation of the brush border membrane vesicles. The intestines were frozen in plastic bags under nitrogen at -80° C. For preparation of the membrane vesicles, the frozen intestines were […] at 30° C. in a water-bath. The mucosa was scraped off and suspended in 60 ml of ice-cold 12 mM Tris/HCl buffer (pH 7.1)/300 mM mannitol, 5 mM EGTA/10 mg/l of phenylmethylsulfonylfluoride/1 mg/l of trypsin inhibitor for soya beans (32 U/mg)/0.5 mg/l of trypsin inhibitor from bovine lung (193 U/mg)/5 mg/l of bacitracin. After dilution to 300 ml with ice-cold distilled water, the mixture was homogenized with an Ultraturrax (18-rod, IKA Werk Staufen, FRG) for 3 minutes at 75 % of the maximum power, while cooling with ice. After addition of 3 ml of 1M MgCl2 solution (final concentration 10 mM), the mixture was left to stand at 0° C. for exactly 1 minute. By addition of Mg^2+, the cell membranes aggregate and precipitate, with the exception of the brush border membranes. After centrifugation at 3000×g (5000 revolutions per minute, SS-34 rotor) for 15 minutes, the precipitate is discarded and the supernatant, which contains the brush border membranes, was centrifuged at […] (15000 revolutions per minute, SS-34 rotor) for 30 minutes. The supernatant was discarded and the precipitate was rehomogenized in 60 ml of 12 mM tris/HCl buffer (pH 7.1)/60 mM mannitol, 5 mM EGTA using a Potter Elvejhem homogenizer (Braun, Melsungen, 900 revolutions per minute, 10 strokes). After addition of 0.1 ml of 1M MgCl2 solution and an incubation time of 15 minutes at 0° C., the mixture was centrifuged again at 3000×g for 15 minutes. The supernatatant was then centrifuged again at 46000×g (15000 revolutions per minute, SS-34 rotor) for 30 minutes. The precipitate was taken up in 30 ml of 10 mM Tris/Hepes buffer (pH 7.4)/300 mM mannitol and resuspended homogeneously by 20 strokes in a Potter Elvejhem homogenizer at 1000 revolutions per minute. After centrifugation at 48000×g (20000 revolutions per minute, SS-34 rotor) for 30 minutes, the precipitate was taken up in 0.5 to 2 ml of Tris/Hepes buffer (pH 7.4)/280 mM mannitol (final concentration 20 mg/ml) and resuspended with the aid of a tuberculin syringe with a 27 gauge needle. The vesicles were either used for transportation studies immediately after preparation or stored at -196° C. in 4 mg portions in liquid nitrogen.
2. Inhibition of the Na^+ -dependent [^3 H]-taurocholate Uptake in the Brush Border Membrane Vesicles of the Ileum
The uptake of substrates into the brush border membrane vesicles described above was determined by means of the so-called membrane filtration technique. 10 μl of the vesicle suspension (100 μg of protein) were pipetted as drops onto the wall of a polystyrene incubation tube (11×70 mm) which contained the incubation medium with the corresponding ligands (90 μl). […]

| SMILES | IC50Na TCDC / IC50Na -substance | IC50 -TCDC / IC50 -substance |
| --- | --- | --- |
| C[C@H](Cc1nn[nH]n1)[C@H]1CC[C@H]2[C@@H]3[C@H](O)C[C@@H]4C[C@H](O)CC[C@]4(C)[C@H]3C[C@H](O)[C@]12C [Example 4] | 0.38 | 0.28 |
| CC(CCCc1nn[nH]n1)C1CCC2C3C(O)CC4CC(O)CCC4(C)C3CC(O)C12C (centres unmarked) [Example 14] | 1.35 | 1.20 |
| C[C@H](CCCc1nn[nH]n1)[C@H]1CC[C@H]2[C@@H]3[C@H](O)C[C@@H]4C[C@@H](OCCO)CC[C@]4(C)[C@H]3C[C@H](O)[C@]12C [Example 16] | 0.25 | 0.26 |
| C[C@H](CCC(=O)N[C@H]1CC[C@@]2(C)[C@@H](C1)C[C@@H](O)[C@@H]1[C@@H]2C[C@H](O)[C@]2(C)[C@@H]([C@H](C)CCC(=O)Nc3nn[nH]n3)CC[C@@H]12)[C@H]1CC[C@H]2[C@@H]3[C@H](O)C[C@@H]4C[C@H](O)CC[C@]4(C)[C@H]3C[C@H](O)[C@]12C [Example 22] | 1.35 | 1.66 |
| C[C@H](CCC(=O)Nc1nn[nH]n1)[C@H]1CC[C@H]2[C@@H]3[C@H](O)C[C@@H]4C[C@H](O)CC[C@]4(C)[C@H]3C[C@H](O)[C@]12C [Example 24] | 1.27 | 0.97 |
| C[C@H](CCC(=O)NCCO[C@H]1CC[C@@]2(C)[C@@H](C1)C[C@@H](O)[C@@H]1[C@@H]2C[C@H](O)[C@]2(C)[C@@H]([C@H](C)CCCc3nn[nH]n3)CC[C@@H]12)[C@H]1CC[C@H]2[C@@H]3[C@@H](O)C[C@@H]4C[C@H](O)CC[C@]4(C)[C@H]3CC[C@]12C [Example 27] | 0.25 | 0.26 |
| C[C@H](CCC(=O)NCc1nn[nH]n1)[C@H]1CC[C@H]2[C@@H]3[C@H](O)C[C@@H]4C[C@H](O)CC[C@]4(C)[C@H]3C[C@H](O)[C@]12C [Example 29] | 0.48 | 0.46 |
